Read-outs that look alike come from different tables or passages of the source. Marks after values point to notes of the source that are not given here.
Tests used:
Assay type in all cases: cell-based
[1] = tested on: D. immitis L4 larvae; test: Dirofilaria immitis, L4 Stage (DiL4) In Vitro Assay; conditions: for DiMf/DiL4: larval stage selectivity, ratio of DiMf MED to DiL4 MED
[2] = tested on: third stage larvae of Haemonchus contortus; test: Haemonchus contortus, Larvae Stage 3 (HcL3) In Vitro Assay; conditions: for minimal effective concentration: Haemonchus contortus, 96 h; for HcL3 MED (symbol after Ex#): approximately 96 hours incubation
[3] = tested on: microfilariae of Dirofilaria immitis; test: Dirofilaria immitis, Microfilaria (DiMf) In Vitro Assay; conditions: Dirofilaria immitis, 72 h, read-out: DiMf MED, Minimum Effective Dose, D. immitis microfilariae motility, in vitro
[4] = multiple-resistant field isolate

| Compound | HcL3 MED (symbol after Ex#) [2, 4] | further results |
| --- | --- | --- |
| Cc1cnsc1Cc1ccc(C[C@H]2OC(=O)[C@H](CC(C)C)N(C)C(=O)[C@@H](C)OC(=O)[C@H](CC(C)C)N(C)C(=O)[C@@H](Cc3ccc(Cc4sncc4C)cc3)OC(=O)[C@H](CC(C)C)N(C)C(=O)[C@@H](C)OC(=O)[C@H](CC(C)C)N(C)C2=O)cc1 [Example 3-288, (3S,6R,9S,12R,15S,18R,21S,24R)-3,9,15,21-tetraisobutyl-4,6,10,16,18,22-hexamethyl-12,24-bis(4-((4-methylisothiazol-5-yl)methyl)benzyl)-1,7,13,19-tetraoxa-4,10,16,22-tetraazacyclotetracosan-2,5,8,11,14,17,20,23-octaone] | – | DiL4 MED ([1]; Minimum Effective Dose, D. immitis L4 larvae motility, in vitro, listed as (3-288)): 0.1 nM; DiMf/DiL4 ([1]; listed as (3-288)): 30; minimal effective concentration ([2]; read-out: HcL3 MED, Haemonchus contortus third stage larvae in vitro, class mark appended to the Ex # in Table 3): < 1 µM; minimal effective concentration ([2]; read-out: HcL3 MED, approximately 96 hours incubation, multiple-resistant field isolate): ≤ 1 µM; HcL3 MED ([2]; Minimum Effective Dose, H. contortus third stage larvae, approximately 96 hours, listed as (3-288)): 0.2 µM |
| CC(C)C[C@H]1C(=O)O[C@H](Cc2ccc(Cc3cnccc3C3CC3)cc2)C(=O)N(C)[C@@H](CC(C)C)C(=O)O[C@H](C)C(=O)N(C)[C@@H](CC(C)C)C(=O)O[C@H](Cc2ccc(Cc3cnccc3C3CC3)cc2)C(=O)N(C)[C@@H](CC(C)C)C(=O)O[C@H](C)C(=O)N1C [Example 3-306] | – | HcL3 MED ([2]; Haemonchus contortus third stage larvae in vitro, class mark appended to the Ex # in Table 3): 3-306* (Examples with an asterisk (*) have HcL3 MED values≤1 μM) |
| COc1ncc(Cl)cc1Cc1ccc(C[C@H]2OC(=O)[C@H](CC(C)C)N(C)C(=O)[C@@H](C)OC(=O)[C@H](CC(C)C)N(C)C(=O)[C@@H](Cc3ccc(Cc4cc(Cl)cnc4OC)cc3)OC(=O)[C@H](CC(C)C)N(C)C(=O)[C@@H](C)OC(=O)[C@H](CC(C)C)N(C)C2=O)cc1 [Example 3-332, (3S,6R,9S,12R,15S,18R,21S,24R)-6,18-bis(4-((5-chloro-2-methoxypyridin-3-yl)methyl)benzyl)-3,9,15,21-tetraisobutyl-4,10,12,16,22,24-hexamethyl-1,7,13,19-tetraoxa-4,10,16,22-tetraazacyclotetracosan-2,5,8,11,14,17,20,23-octaone] | – | minimal effective concentration [3]: 0.3 µM; minimal effective concentration ([1]; Dirofilaria immitis, 72 h, read-out: DiL4 MED, Minimum Effective Dose, D. immitis L4 larvae motility, in vitro): 0.0005 µM; DiMf/DiL4 [1]: 548 |
| Cc1nn(C)cc1Cc1ccc(C[C@H]2OC(=O)[C@H](CC(C)C)N(C)C(=O)[C@@H](C)OC(=O)[C@H](CC(C)C)N(C)C(=O)[C@@H](Cc3ccccc3)OC(=O)[C@H](CC(C)C)N(C)C(=O)[C@@H](C)OC(=O)[C@H](CC(C)C)N(C)C2=O)cc1 [Example 4-3] | 4-3^ (Examples with a carrot (^) have HcL3 MED values>1 and ≤3.3 μM) | – |
| CC(C)C[C@H]1C(=O)O[C@H](Cc2ccc(Cc3cccs3)cc2)C(=O)N(C)[C@@H](CC(C)C)C(=O)O[C@H](C)C(=O)N(C)[C@@H](CC(C)C)C(=O)O[C@H](Cc2ccccc2)C(=O)N(C)[C@@H](CC(C)C)C(=O)O[C@H](C)C(=O)N1C [Example 4-5] | 4-5^ (Examples with a carrot (^) have HcL3 MED values>1 and ≤3.3 μM) | – |
| COc1ncccc1Cc1ccc(C[C@H]2OC(=O)[C@H](CC(C)C)N(C)C(=O)[C@@H](C)OC(=O)[C@H](CC(C)C)N(C)C(=O)[C@@H](Cc3ccccc3)OC(=O)[C@H](CC(C)C)N(C)C(=O)[C@@H](C)OC(=O)[C@H](CC(C)C)N(C)C2=O)cc1 [Example 4-22] | 4-22^ (Examples with a carrot (^) have HcL3 MED values>1 and ≤3.3 μM) | – |
| CC(C)C[C@H]1C(=O)O[C@H](Cc2ccc(Cc3nccs3)cc2)C(=O)N(C)[C@@H](CC(C)C)C(=O)O[C@H](C)C(=O)N(C)[C@@H](CC(C)C)C(=O)O[C@H](Cc2ccccc2)C(=O)N(C)[C@@H](CC(C)C)C(=O)O[C@H](C)C(=O)N1C [Example 4-31] | 4-31* (Examples with an asterisk (*) have HcL3 MED values≤1 μM) | – |
| CC(C)C[C@H]1C(=O)O[C@H](Cc2ccc(Cc3cncs3)cc2)C(=O)N(C)[C@@H](CC(C)C)C(=O)O[C@H](C)C(=O)N(C)[C@@H](CC(C)C)C(=O)O[C@H](Cc2ccccc2)C(=O)N(C)[C@@H](CC(C)C)C(=O)O[C@H](C)C(=O)N1C [Example 4-35] | 4-35^ (Examples with a carrot (^) have HcL3 MED values>1 and ≤3.3 μM) | – |
| CC(C)C[C@H]1C(=O)O[C@H](Cc2ccc(Cc3ccsn3)cc2)C(=O)N(C)[C@@H](CC(C)C)C(=O)O[C@H](C)C(=O)N(C)[C@@H](CC(C)C)C(=O)O[C@H](Cc2ccccc2)C(=O)N(C)[C@@H](CC(C)C)C(=O)O[C@H](C)C(=O)N1C [Example 4-36] | 4-36^ (Examples with a carrot (^) have HcL3 MED values>1 and ≤3.3 μM) | – |
| Cc1cc(Cc2ccc(C[C@H]3OC(=O)[C@H](CC(C)C)N(C)C(=O)[C@@H](C)OC(=O)[C@H](CC(C)C)N(C)C(=O)[C@@H](Cc4ccccc4)OC(=O)[C@H](CC(C)C)N(C)C(=O)[C@@H](C)OC(=O)[C@H](CC(C)C)N(C)C3=O)cc2)n(C)n1 [Example 4-42] | 4-42^ (Examples with a carrot (^) have HcL3 MED values>1 and ≤3.3 μM) | – |
| CC(C)C[C@H]1C(=O)O[C@H](Cc2ccc(Cc3cocn3)cc2)C(=O)N(C)[C@@H](CC(C)C)C(=O)O[C@H](C)C(=O)N(C)[C@@H](CC(C)C)C(=O)O[C@H](Cc2ccccc2)C(=O)N(C)[C@@H](CC(C)C)C(=O)O[C@H](C)C(=O)N1C [Example 4-52] | 4-52* (Examples with an asterisk (*) have HcL3 MED values≤1 μM) | – |
| Cc1scnc1C(O)c1ccc(C[C@H]2OC(=O)[C@H](CC(C)C)N(C)C(=O)[C@@H](C)OC(=O)[C@H](CC(C)C)N(C)C(=O)[C@@H](Cc3ccccc3)OC(=O)[C@H](CC(C)C)N(C)C(=O)[C@@H](C)OC(=O)[C@H](CC(C)C)N(C)C2=O)cc1 (some centres unmarked) [Example 4-56] | 4-56^ (Examples with a carrot (^) have HcL3 MED values>1 and ≤3.3 μM) | – |
| Cc1nc(Cc2ccc(C[C@H]3OC(=O)[C@H](CC(C)C)N(C)C(=O)[C@@H](C)OC(=O)[C@H](CC(C)C)N(C)C(=O)[C@@H](Cc4ccccc4)OC(=O)[C@H](CC(C)C)N(C)C(=O)[C@@H](C)OC(=O)[C@H](CC(C)C)N(C)C3=O)cc2)cs1 [Example 4-66] | 4-66^ (Examples with a carrot (^) have HcL3 MED values>1 and ≤3.3 μM) | – |
| CC(C)C[C@H]1C(=O)O[C@H](Cc2ccc(C(O)c3sccc3Cl)cc2)C(=O)N(C)[C@@H](CC(C)C)C(=O)O[C@H](C)C(=O)N(C)[C@@H](CC(C)C)C(=O)O[C@H](Cc2ccccc2)C(=O)N(C)[C@@H](CC(C)C)C(=O)O[C@H](C)C(=O)N1C (some centres unmarked) [Example 4-77] | 4-77^ (Examples with a carrot (^) have HcL3 MED values>1 and ≤3.3 μM) | – |
| Cc1nc(Cc2ccc(C[C@H]3OC(=O)[C@H](CC(C)C)N(C)C(=O)[C@@H](C)OC(=O)[C@H](CC(C)C)N(C)C(=O)[C@@H](Cc4ccccc4)OC(=O)[C@H](CC(C)C)N(C)C(=O)[C@@H](C)OC(=O)[C@H](CC(C)C)N(C)C3=O)cc2)co1 [Example 4-83] | 4-83^ (Examples with a carrot (^) have HcL3 MED values>1 and ≤3.3 μM) | – |
| Cc1csc(Cc2ccc(C[C@H]3OC(=O)[C@H](CC(C)C)N(C)C(=O)[C@@H](C)OC(=O)[C@H](CC(C)C)N(C)C(=O)[C@@H](Cc4ccccc4)OC(=O)[C@H](CC(C)C)N(C)C(=O)[C@@H](C)OC(=O)[C@H](CC(C)C)N(C)C3=O)cc2)n1 [Example 4-90] | 4-90^ (Examples with a carrot (^) have HcL3 MED values>1 and ≤3.3 μM) | – |
| Cc1nc(C)c(Cc2ccc(C[C@H]3OC(=O)[C@H](CC(C)C)N(C)C(=O)[C@@H](C)OC(=O)[C@H](CC(C)C)N(C)C(=O)[C@@H](Cc4ccccc4)OC(=O)[C@H](CC(C)C)N(C)C(=O)[C@@H](C)OC(=O)[C@H](CC(C)C)N(C)C3=O)cc2)o1 [Example 4-91] | 4-91^ (Examples with a carrot (^) have HcL3 MED values>1 and ≤3.3 μM) | – |
| Cc1cnc(Cc2ccc(C[C@H]3OC(=O)[C@H](CC(C)C)N(C)C(=O)[C@@H](C)OC(=O)[C@H](CC(C)C)N(C)C(=O)[C@@H](Cc4ccccc4)OC(=O)[C@H](CC(C)C)N(C)C(=O)[C@@H](C)OC(=O)[C@H](CC(C)C)N(C)C3=O)cc2)s1 [Example 4-94] | 4-94^ (Examples with a carrot (^) have HcL3 MED values>1 and ≤3.3 μM) | – |
| Cc1ccc(Cc2ccc(C[C@H]3OC(=O)[C@H](CC(C)C)N(C)C(=O)[C@@H](C)OC(=O)[C@H](CC(C)C)N(C)C(=O)[C@@H](Cc4ccccc4)OC(=O)[C@H](CC(C)C)N(C)C(=O)[C@@H](C)OC(=O)[C@H](CC(C)C)N(C)C3=O)cc2)cn1 [Example 4-101] | 4-101^ (Examples with a carrot (^) have HcL3 MED values>1 and ≤3.3 μM) | – |
| CC(C)C[C@H]1C(=O)O[C@H](Cc2ccc(Cc3ncc(Cl)s3)cc2)C(=O)N(C)[C@@H](CC(C)C)C(=O)O[C@H](C)C(=O)N(C)[C@@H](CC(C)C)C(=O)O[C@H](Cc2ccccc2)C(=O)N(C)[C@@H](CC(C)C)C(=O)O[C@H](C)C(=O)N1C [Example 4-111] | 4-111^ (Examples with a carrot (^) have HcL3 MED values>1 and ≤3.3 μM) | – |
| Cc1nc(Cc2ccc(C[C@H]3OC(=O)[C@H](CC(C)C)N(C)C(=O)[C@@H](C)OC(=O)[C@H](CC(C)C)N(C)C(=O)[C@@H](Cc4ccccc4)OC(=O)[C@H](CC(C)C)N(C)C(=O)[C@@H](C)OC(=O)[C@H](CC(C)C)N(C)C3=O)cc2)sc1C [Example 4-115] | 4-115^ (Examples with a carrot (^) have HcL3 MED values>1 and ≤3.3 μM) | – |
| Cc1nnsc1Cc1ccc(C[C@H]2OC(=O)[C@H](CC(C)C)N(C)C(=O)[C@@H](C)OC(=O)[C@H](CC(C)C)N(C)C(=O)[C@@H](Cc3ccccc3)OC(=O)[C@H](CC(C)C)N(C)C(=O)[C@@H](C)OC(=O)[C@H](CC(C)C)N(C)C2=O)cc1 [Example 4-116] | 4-116^ (Examples with a carrot (^) have HcL3 MED values>1 and ≤3.3 μM) | – |
| CC(C)C[C@H]1C(=O)O[C@H](Cc2ccc(Cc3cnco3)cc2)C(=O)N(C)[C@@H](CC(C)C)C(=O)O[C@H](C)C(=O)N(C)[C@@H](CC(C)C)C(=O)O[C@H](Cc2ccccc2)C(=O)N(C)[C@@H](CC(C)C)C(=O)O[C@H](C)C(=O)N1C [Example 4-135] | 4-135^ (Examples with a carrot (^) have HcL3 MED values>1 and ≤3.3 μM) | – |

From patent US11771738B2 (Zoetis Services LLC, priority 2018, dated 2023)
